Data reported in US20230192617A1, “AZABICYCLIC(THIO)AMIDES AS FUNGICIDAL COMPOUNDS” (Bayer CropScience Aktiengesellschaft, priority 2020, published 2023).

Experiments:
[1] = Measurement of Log P values by HPLC on reversed phase columns (EEC directive 79/831 Annex V.A8); format: physicochemical; conditions: reversed phase HPLC column
Summary of the method: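 Log P derived from retention on reversed-phase columns (EEC directive 79/831 Annex V.A8), LC-UV, acetonitrile gradient 10% to 95% against water containing 0.1% formic acid, 0.001 M ammonium acetate, or 0.1% phosphoric acid; several values per method separated by "+".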

[2] = test system: Colletotrichum lindemuthianum; assay: B-8. Colletotrichum lindemuthianum in vitro cell test; format: cell-based; conditions: 144 h, 20 ppm of active ingredient, 6 days incubation, liquid culture, absorbance, read-out: efficacy (inhibition of fungal growth)
Summary of the method: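 Liquid-culture germination/growth test: compounds in ≤1% final DMSO were added to spore-containing medium. Fungal growth was quantified spectrophotometrically after 6 days of incubation and expressed as inhibition versus untreated controls.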

Botrytis cinerea [3] = assay: B-11. Botrytis cinerea in vitro cell test; format: cell-based; conditions: 144 h, 20 ppm of active ingredient, 6 days incubation, liquid culture, absorbance, read-out: efficacy (inhibition of fungal growth)
Summary of the method: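 B. cinerea spores were grown in liquid culture with compound (DMSO ≤1% final). Mycelium growth was measured spectrometrically after 6 days, with inhibition taken as absorbance relative to untreated control wells.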

Botrytis cinerea [4] = assay: In vivo preventive test on Botrytis cinerea (grey mould); conditions: 500 ppm of active ingredient, preventive spray on gherkin or cabbage, evaluated 4 to 5 days after inoculation, read-out: efficacy
Summary of the method: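 Preventive spray on cabbage or gherkin seedlings, with compound formulated in DMSO/acetone/Tween 80 and water-diluted, preceded spore inoculation by 24 hours. Cabbage was held 4 to 5 days at 20° C., 100% relative humidity; gherkin 4 to 5 days at 17° C., 90% relative humidity.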

Sphaerotheca fuliginea = assay: In vivo preventive test on Sphaerotheca fuliginea (powdery mildew on cucurbits); conditions: Podosphaera fuliginea, 192 h; 500 ppm of active ingredient; preventive spray on gherkin; evaluated 8 days after inoculation; read-out: efficacy
Experimental: B-4. in vivo preventive test on Sphaerotheca fuliginea (powdery mildew on cucurbits) [table] The active ingredients were made soluble and homogenized in a mixture of Dimethyl sulfoxide/Acetone/Tween® 80 and then diluted in water to the desired concentration. The young plants of gherkin were treated by spraying the active ingredient prepared as described above. Control plants were treated only with an aqueous solution of Acetone/Dimethyl sulfoxide/Tween® 80. After 24 hours, the plants were contaminated by spraying the leaves with an aqueous suspension of Sphaerotheca fuliginea spores. The contaminated gherkin plants were incubated for 8 days at 20° C. and at 70-80% relative humidity.

Alternaria brassicae = assay: In vivo preventive test on Alternaria brassicae (leaf spot on radish or cabbage); conditions: 500 ppm of active ingredient, preventive spray on radish or cabbage, evaluated 3 to 4 days after inoculation, read-out: efficacy
Summary of the method: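 Protective spray on young radish or cabbage: actives in water diluted from DMSO/acetone/Tween 80, with solvent-only controls. Leaves were challenged after 24 h with a spore suspension, and plants were held at 100% RH, 20 °C for 3 to 4 days.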

Alternaria alternata = Alternaria alternata in vitro cell test; format: cell-based; conditions: 120 h, 20 ppm of active ingredient, liquid culture, 5 days incubation, spectrometric measurement of mycelium growth, read-out: efficacy (inhibition of fungal growth)
Summary of the method: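 Spectrometric readout of mycelial growth after 5-day incubation gauged compound effects on spore germination and growth of A. alternata in liquid medium. Compounds were delivered in DMSO at ≤1% final. Absorbance was compared with untreated controls to give inhibition.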

Pyrenophora teres = assay: B-10. Pyrenophora teres in vitro cell test; format: cell-based; conditions: 144 h, 20 ppm of active ingredient, 6 days incubation, liquid culture, absorbance, read-out: efficacy (inhibition of fungal growth)
Summary of the method: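 Liquid-culture assay on a P. teres spore suspension with compounds added to the medium from DMSO solutions, final DMSO ≤1%. Mycelium growth read spectrometrically after 6 days. Inhibition calculated from absorbance against untreated control wells.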

[5] = method [a]: LC-UV, acidic range, 0.1% formic acid in water and acetonitrile as eluent
[6] = method [b]: LC-UV, neutral range, 0.001 molar ammonium acetate solution in water and acetonitrile as eluent

Row | chromatographic logP [1, 5] | chromatographic logP [1, 6] | Compound | inhibition at 20 ppm [2] | inhibition at 20 ppm (Botrytis cinerea [3]) | pest or weed control at 500 ppm (Botrytis cinerea [4]) | pest or weed control at 500 ppm (Sphaerotheca fuliginea) | pest or weed control at 500 ppm (Alternaria brassicae) | inhibition at 20 ppm (Alternaria alternata) | inhibition at 20 ppm (Pyrenophora teres)
1 | 4.08 |  | Cc1cc(C(F)F)ccc1[C@@H](F)CNC(=O)c1c(Oc2cccc(C(F)(F)F)c2)cnc2ccccc12 (racemic) [I-057] | 90 to 100% | 90 to 100% | 90 to 100% | 90 to 100% | 90 to 100% | 90 to 100% | 
2 | 4.56 |  | O=C(NC[C@H](F)c1ccc(Br)cc1Cl)c1c(Oc2cccc(C(F)(F)F)c2)cnc2ccccc12 (racemic) [I-041] | 90 to 100% |  | 90 to 100% | 90 to 100% | 90 to 100% | 90 to 100% | 
3 | 4.47 |  | O=C(NC[C@@H](F)c1ccc(Cl)c(Cl)c1)c1c(Oc2cccc(C(F)(F)F)c2)cnc2ccccc12 (racemic) [I-059] |  | 90 to 100% | 90 to 100% | 70 to 79% |  | 90 to 100% | 
4 | 4.13 |  | O=C(NCC(F)(F)c1ccc(Cl)cc1)c1c(Oc2cccc(C(F)(F)F)c2)nnc2ccccc12 [I-023] | 90 to 100% |  | 90 to 100% | 90 to 100% | 90 to 100% | 90 to 100% | 
5 | 4.46 |  | O=C(NC[C@H](F)c1ccc(Cl)cc1Cl)c1c(Oc2cccc(C(F)(F)F)c2)cnc2ccccc12 (racemic) [I-043] | 90 to 100% |  | 90 to 100% | 90 to 100% | 90 to 100% | 90 to 100% | 
6 | 4.27 | 4.22 | Cc1ccc(C(F)(F)CNC(=O)c2c(Oc3cccc(C(F)(F)F)c3)nnc3ccccc23)c(C)c1 [I-008] | 80 to 89% |  | 90 to 100% | 90 to 100% | 80 to 89% | 90 to 100% | 
7 | 3.79 |  | Cc1cccc(Oc2nnc3ccccc3c2C(=O)N[C@@H](C)c2cccc(C(F)(F)F)c2)c1 (racemic) [I-020] | 70 to 79% |  | 90 to 100% | 70 to 79% | 90 to 100% | 80 to 89% | 
8 | 4.59 |  | Cc1cc(Br)ccc1[C@@H](F)CNC(=O)c1c(Oc2cccc(C(F)(F)F)c2)cnc2ccccc12 (racemic) [I-063] | 90 to 100% | 90 to 100% | 90 to 100% | 90 to 100% | 90 to 100% | 90 to 100% | 
9 | 4.58 |  | O=C(NCC(F)(F)c1ccc(Br)cc1Cl)c1c(Oc2cccc(C(F)(F)F)c2)nnc2ccccc12 [I-021] | 90 to 100% |  | 90 to 100% | 90 to 100% | 90 to 100% | 90 to 100% | 
10 | 4.7 |  | O=C(NC[C@H](F)c1ccc(C2CC2)cc1Cl)c1c(Oc2cccc(C(F)(F)F)c2)cnc2ccccc12 (racemic) [I-062] | 90 to 100% | 90 to 100% | 90 to 100% | 90 to 100% | 90 to 100% | 90 to 100% | 
11 | 4.14 |  | O=C(NCC(F)(F)c1ccc(Br)cc1Cl)c1c(Oc2cccc(C(F)F)c2)nnc2ccccc12 [I-035] | 90 to 100% |  | 90 to 100% | 70 to 79% | 90 to 100% | 90 to 100% | 
12 | 4.05 |  | COc1cc([C@@H](F)CNC(=O)c2c(Oc3cccc(C(F)(F)F)c3)cnc3ccccc23)ccc1Cl (racemic) [I-058] | 90 to 100% | 90 to 100% | 90 to 100% | 90 to 100% | 90 to 100% | 90 to 100% | 

Further lines, the compound ahead of its results:

Row | Compound | chromatographic logP [1, 5] | chromatographic logP [1, 6] | inhibition at 20 ppm [2] | inhibition at 20 ppm (Botrytis cinerea [3]) | pest or weed control at 500 ppm (Botrytis cinerea [4]) | pest or weed control at 500 ppm (Sphaerotheca fuliginea) | pest or weed control at 500 ppm (Alternaria brassicae) | inhibition at 20 ppm (Alternaria alternata) | inhibition at 20 ppm (Pyrenophora teres)
13 | Cc1ccc(C(F)(F)CNC(=O)c2c(Oc3cncc(C(F)(F)F)c3)nnc3ccccc23)c(C)c1 [I-025] | 3.87 |  | 90 to 100% |  | 90 to 100% | 90 to 100% | 90 to 100% | 90 to 100% | 
14 | Cc1ccc(CCNC(=O)c2c(Oc3cccc(C(F)(F)F)c3)nnc3ccc(F)cc23)c(C)c1 [I-006] | 4.46 |  | 90 to 100% | 90 to 100% | 90 to 100% | 90 to 100% | 90 to 100% | 90 to 100% | 
15 | Cc1ccc(CCNC(=O)c2c(Oc3cccc(C(F)(F)F)c3)nnc3cc(C)ccc23)c(C)c1 [I-004, N-[2-(2,4-dimethylphenyl)ethyl]-7-methyl-3-[3-(trifluoro-methyl)phenoxy]cinnoline-4-carboxamide] | 4.51 |  | 90 to 100% |  | 90 to 100% | 90 to 100% | 90 to 100% | 90 to 100% | 
16 | O=C(NCC(F)(F)c1ccc(Br)cc1Cl)c1c(Oc2cncc(C(F)(F)F)c2)nnc2ccccc12 [I-027] | 4.08 |  | 90 to 100% |  | 90 to 100% | 90 to 100% | 90 to 100% | 90 to 100% | 
17 | O=C(NCC(F)(F)c1ccc(Cl)cc1)c1c(Oc2cncc(C(F)(F)F)c2)nnc2ccccc12 [I-026] | 3.61 |  | 90 to 100% |  | 90 to 100% | 90 to 100% | 90 to 100% | 90 to 100% | 
18 | Cc1ccc(CCNC(=O)c2c(Oc3cccc(C(F)(F)F)c3)nnc3ccc(C)cc23)c(C)c1 [I-003] | 4.47 |  | 90 to 100% |  | 90 to 100% | 90 to 100% | 90 to 100% | 90 to 100% | 
19 | O=C(N[C@H]1CCCc2cc(Br)ccc21)c1c(Oc2cccc(C(F)(F)F)c2)cnc2c1OCCO2 (racemic) [I-111] | 4.03 | 3.99 | 90 to 100% |  | 90 to 100% | 90 to 100% | 90 to 100% |  | 
20 | Cc1ccc(C(F)(F)CNC(=O)c2c(Oc3cccc(C(F)(F)F)c3)nnc3c2CCOCC3)c(C)c1 [I-114, N-[2-(2,4-dimethylphenyl)-2,2-difluoro-ethyl]-3-[3-(trifluoro-methyl)phenoxy]-5,6,8,9-tetrahydrooxepino[4,5-c]pyridazine-4-carboxamide] | 3.58 |  | 90 to 100% |  | 90 to 100% | 90 to 100% | 70 to 79% | 90 to 100% | 
21 | Cc1ccc(C(F)(F)CNC(=O)c2c(Oc3cccc(C(F)(F)F)c3)c(C)nc3ccccc23)c(C)c1 [I-185] | 4.59 |  |  |  |  | 90 to 100% | 70 to 79% | 80 to 89% | 90 to 100%
22 | O=C(NCC(F)(F)c1ccc(Cl)cc1)c1c(Oc2cccc(Cl)c2)nnc2ccccc12 [I-012] |  |  | 90 to 100% |  | 90 to 100% | 90 to 100% | 90 to 100% | 90 to 100% | 
23 | COc1ccc2nnc(Oc3cccc(C(F)(F)F)c3)c(C(=O)NCCc3ccc(C)cc3C)c2c1 [I-010] | 4.29 |  |  |  | 90 to 100% | 90 to 100% | 80 to 89% | 90 to 100% | 
